tested on: HIV-1 (IIIB strain); assay: Anti-HIV cytoprotection assay (XTT), HIV-1 IIIB in CEM-SS cells; assay type: cell-based; settings: Human immunodeficiency virus 1, IIIB, CEM-SS, CEM-SS cell line; read-out: Inhibitory activity (EC50) against HIV-1 (IIIB strain)
Source text: a) Inhibitory Activity of the Lymphocytropic Virus Strain HIV-1 (IIIB) in the CEM-SS Cell Line.
The evaluation was done by ImQuest BioSciences, Inc. (Frederick, Md., USA). CEM-SS cells [Foley G. E. et al. Continuous Culture of Human Lymphoblasts from Peripheral Blood of a Child with Acute Leukemia. Cancer 1965, 18, 522-529] obtained through the NIH AIDS Research and Reference Reagent Program (Manassas, Va., USA) were passaged in T-75 flasks prior to use cell culture medium consisting of RPMI1640 medium (Lonza; Walkersville, Md., USA) supplemented with 10% heat inactivated fetal bovine serum (Gibco; Grand Island, N.Y.), […] L-glutamine (Lonza), […] penicillin (Lonza) and […] streptomycin (Lonza) for antiviral analysis. The CEM-SS cells were kept in RPMI 140 medium supplemented with 10% heat inactivated bovine fetal serum, 2 mM glutamine, 100 U/ml penicillin, and 100 μg/ml streptomycin.
A lymphocytropic HIV-1 IIIB strain [Popovic, M. et al. Detection, isolation, and continuous production of cytopathic retroviruses (HTLV-III) from patients with AIDS and pre-AIDS. Science. 1984, 224 (4648), 497-500] was chosen for a virus to be analyzed. The virus was obtained through the NIH AIDS Research and Reference Reagents Program and grown in CEM-SS cells to produce a stock virus pool. A pre-titrated aliquot of the virus was removed from the freezer (−80° C.) and allowed to slowly thaw to room temperature in a biological safety cabinet. The virus was diluted in a tissue culture medium so that the amount of virus added in 50 μl per well was sufficient to kill 85 to 95% of the cells 6 days after infection. HIV-1 IIIB was grown and titrated in CEM-SS cells. The inhibitory effect of […] was evaluated in CEM-SS cells as described earlier [Nara, P. L. at al. Simple, rapid, quantitative, syncytium-forming microassay for the detection of human immunodeficiency virus neutralizing antibody. AIDS Res. Hum. Retroviruses 1987, 3, 283-302.] in microtiter plate anti-HIV assays to quantitatively assess the ability of a compound to inhibit HIV-induced cell death. Quantification was carried out using 2,3-bis-(2-methoxy-4-nitro-5-[…])-(2H)-tetrazolium-5-carboxanilide (XTT) tetrazolium, which is metabolized to a stained formazan product through viable […] The compounds given in Table 1 were dissolved at 10 μM in DMSO and stored at −20° C.
Test materials were evaluated using antiviral assays in triplicate in concentrations of 30 and 10 nM. The compounds shown in table 1 were dissolved at 10 μM in DMSO and stored at −20° C. […] Sixty nanomolar concentrations of each compound (2 times that of the test concentration in the well) were prepared by diluting 10 μM DMSO stock 1:100 in cell culture medium (10 μl of compound added to 990 μl of the medium) followed by 1:10 dilution (10 μl of the compound was added to 90 μl of the medium), then 6 μl was added to 994 μl of the medium; […] μl was added to a 96-well microtiter plate in triplicate to ensure efficacy and one colorimetric well. Twenty nanomolar concentrations of each compound (twice as much as the test concentration in the well) were prepared by diluting 10 μM DMSO with the original 1:100 in cell culture medium (10 μl of the compound added to 990 μl of the medium) followed by diluting […] (10 μl of the compound was added to 900 μl of the medium), then 20 μl was added to 980 μl of the medium; 100 μl was added to a 96-well microtiter plate in triplicate to ensure efficacy and one colorimetric well.
Azidothymidine (AZT) was purchased from Sigma Aldrich (USA) and evaluated as a positive control compound in an antiviral assay using a six-concentration reaction curve on each assay plate.
Test compounds were initially evaluated for HIV-1 IIIB strain in CEM-SS cells at test concentrations of 30 and 10 nM. […]

Row | EC50 | Compound
1 | > 30 nM | Cc1coc(CNC(=O)c2cn3c(c(O)c2=O)C(=O)N2[C@@H](C)CO[C@@H]2C3)n1 [Compound 1.1.9, (3S,11aR)-6-hydroxy-3-methyl-N-[(4-methyl-1,3-oxazol-2-yl)methyl]-5,7-dioxo-2,3,5,7,11,11a-hexahydro[1,3]oxazolo[3,2-a]pyrido[1,2-d]pyrazine-8-carboxamide]
2 | > 30 nM | Cc1nc2cc(CNC(=O)c3cn4c(c(O)c3=O)C(=O)N3[C@@H](C)CO[C@@H]3C4)ccc2n1C [Compound 1.1.64, (3S,11aR)-6-hydroxy-3-methyl-N-[(1,2-dimethyl-1H-benzimidazol-5-yl)methyl]-5,7-dioxo-2,3,5,7,11,11a-hexahydro[1,3]oxazolo[3,2-a]pyrido[1,2-d]pyrazine-8-carboxamide]
3 | 2 to 10 nM | C[C@H]1CO[C@@H]2Cn3cc(C(=O)NCc4ccc5c(c4)OCO5)c(=O)c(O)c3C(=O)N12 [Compound 1.1.34, (3S,11aR)-N-(1,3-benzodioxol-5-ylmethyl)-6-hydroxy-3-methyl-5,7-dioxo-2,3,5,7,11,11a-hexahydro[1,3]oxazolo[3,2-a]pyrido[1,2-d]pyrazine-8-carboxamide]
4 | 10 to 30 nM | C[C@H]1CO[C@@H]2Cn3cc(C(=O)NCc4ccc5c(ccn5C)c4)c(=O)c(O)c3C(=O)N12 [Compound 1.1.33, (3S,11aR)-6-hydroxy-3-methyl-N-[(1-methyl-1H-indol-5-yl)methyl]-5,7-dioxo-2,3,5,7,11,11a-hexahydro[1,3]oxazolo[3,2-a]pyrido[1,2-d]pyrazine-8-carboxamide]
5 | 10 to 30 nM | Cc1nonc1CNC(=O)c1cn2c(c(O)c1=O)C(=O)N1[C@@H](C)CO[C@@H]1C2 [Compound 1.1.12, (3S,11aR)-6-hydroxy-3-methyl-N-[(4-methyl-1,2,5-oxadiazol-3-yl)methyl]-5,7-dioxo-2,3,5,7,11,11a-hexahydro[1,3]oxazolo[3,2-a]pyrido[1,2-d]pyrazine-8-carboxamide]
6 | > 30 nM | C[C@H]1CO[C@@H]2Cn3cc(C(=O)NCc4cnccn4)c(=O)c(O)c3C(=O)N12 [Compound 1.1.27, (3S,11aR)-6-hydroxy-3-methyl-N-(pyrazin-2-ylmethyl)-5,7-dioxo-2,3,5,7,11,11a-hexahydro[1,3]oxazolo[3,2-a]pyrido[1,2-d]pyrazine-8-carboxamide]
7 | ~10 nM | C[C@H]1CO[C@@H]2Cn3cc(C(=O)NCc4cccc5ncccc45)c(=O)c(O)c3C(=O)N12 [Compound 1.1.52, (3S,11aR)-6-hydroxy-3-methyl-N-(quinolin-5-ylmethyl)-5,7-dioxo-2,3,5,7,11,11a-hexahydro[1,3]oxazolo[3,2-a]pyrido[1,2-d]pyrazine-8-carboxamide]
8 | 2 to 10 nM | C[C@H]1CO[C@@]23CCC[C@@H]2n2cc(C(=O)NCc4c(F)cc(F)nc4F)c(=O)c(O)c2C(=O)N13 [Compound 2.2.3, (3aS,6S,13aS)-9-hydroxy-6-methyl-N-[(2,4,6-trifluoropyridin-3-yl)methyl]-8,10-dioxo-1,2,3,5,6,8,10,13a-octahydrocyclopenta[b][1,3]oxazolo[3,2-a]pyrido[1,2-d]pyrazine-11-carboxamide]
9 | > 30 nM | C[C@H]1CO[C@@H]2Cn3cc(C(=O)NCc4ccc5[nH]c(=O)[nH]c5c4)c(=O)c(O)c3C(=O)N12 [Compound 1.1.46, (3S,11aR)-6-hydroxy-N-[(2-oxo-2,3-dihydro-1H-benzimidazol-5-yl)methyl]-3-methyl-5,7-dioxo-2,3,5,7,11,11a-hexahydro[1,3]oxazolo[3,2-a]pyrido[1,2-d]pyrazine-8-carboxamide]
10 | > 30 nM | C[C@H]1CO[C@@H]2Cn3cc(C(=O)NCc4c(F)ccnc4F)c(=O)c(O)c3C(=O)N12 [Compound 1.1.21, (3S,11aR)-6-hydroxy-N-[(2,4-difluoropyridin-3-yl)methyl]-3-methyl-5,7-dioxo-2,3,5,7,11,11a-hexahydro[1,3]oxazolo[3,2-a]pyrido[1,2-d]pyrazine-8-carboxamide]
11 | 10 to 30 nM | Cc1nccc(CNC(=O)c2cn3c(c(O)c2=O)C(=O)N2[C@@H](C)CO[C@@H]2C3)n1 [Compound 1.1.26, (3S,11aR)-6-hydroxy-3-methyl-N-[(2-methylpyrimidin-4-yl)methyl]-5,7-dioxo-2,3,5,7,11,11a-hexahydro[1,3]oxazolo[3,2-a]pyrido[1,2-d]pyrazine-8-carboxamide]
12 | 2 to 10 nM | C[C@@H]1CO[C@@]23CCC[C@@H]2n2cc(C(=O)NCc4c(F)cncc4F)c(=O)c(O)c2C(=O)N13 [Compound 2.1.2, (3aS,6R,13aS)-9-hydroxy-N-[(3,5-difluoropyridin-4-yl)methyl]-6-methyl-8,10-dioxo-1,2,3,5,6,8,10,13a-octahydrocyclopenta[b][1,3]oxazolo[3,2-a]pyrido[1,2-d]pyrazine-11-carboxamide]
13 | 10 to 30 nM | C[C@H]1CO[C@@H]2Cn3cc(C(=O)NCc4nc5cc(F)ccc5[nH]4)c(=O)c(O)c3C(=O)N12 [Compound 1.1.41, (3S,11aR)-6-hydroxy-3-methyl-N-[(5-ϕTopo-1H-benzimidazol-2-yl)methyl]-5,7-dioxo-2,3,5,7,11,11a-hexahydro[1,3]oxazolo[3,2-a]pyrido[1,2-d]pyrazine-8-carboxamide]
14 | 2 to 10 nM | C[C@H]1CO[C@@H]2Cn3cc(C(=O)NCc4cc5ccccc5o4)c(=O)c(O)c3C(=O)N12 [Compound 1.1.32, (3S,11aR)-N-(1-benzofuran-2-ylmethyl)-6-hydroxy-3-methyl-5,7-dioxo-2,3,5,7,11,11a-hexahydro[1,3]oxazolo[3,2-a]pyrido[1,2-d]pyrazine-8-carboxamide]

Row | Compound | EC50
15 | O=C(NCc1c(F)cncc1F)c1cn2c(c(O)c1=O)C(=O)N1[C@H]3CC[C@H](C3)O[C@@H]1C2 [Compound 1.3.3, (2R,5S,13aR)-8-hydroxy-N-[(3,5-difluoropyridin-4-yl)methyl]-7,9-dioxo-2,3,4,5,7,9,13,13a-octahydro-2,5-methanopyrido[1′,2′:4,5]pyrazino[2,1-b][1,3]oxazepine-10-carboxamide] | 2 to 10 nM
16 | O=C(NCc1ccc(F)nc1F)c1cn2c(c(O)c1=O)C(=O)N1[C@H]3CC[C@H](C3)O[C@@H]1C2 [Compound 1.3.1, (2R,5S,13aR)-8-hydroxy-N-[(2,6-difluoropyridin-3-yl)methyl]-7,9-dioxo-2,3,4,5,7,9,13,13a-octahydro-2,5-methanopyrido[1′,2′:4,5]pyrazino[2,1-b][1,3]oxazepine-10-carboxamide] | 2 to 10 nM
